Earlier results as cited in US20250121105A1, “METHODS FOR TREATING CANCER USING COMBINATIONS OF PARP INHIBITORS AND ANTIBODY RADIOCONJUGATES” (ACTINIUM PHARMACEUTICALS, INC., priority 2019, published 2025).
Like-named read-outs stand apart in the source and are kept apart here.

What was measured:
[1] = tested on: glioblastoma cancer cells; conditions: veliparib (ABT-888) plus ionizing radiation (IR)
[2] = order of magnitude only, stated in the background

IC50 values (PARP; [2]) | IC50 values (PARP) | SMILES | sensitivity of glioblastoma cancer cells to PARPi with ionizing radiation [1]
nanomolar range | – | NC(=O)c1cccc2cn(-c3ccc([C@@H]4CCCNC4)cc3)nc12 [niraparib] | –
nanomolar range | – | CNCc1ccc(-c2[nH]c3cc(F)cc4c3c2CCNC4=O)cc1 [rucaparib] | –
– | nanomolar range | C[C@]1(c2nc3c(C(N)=O)cccc3[nH]2)CCCN1 [veliparib] | IR sensitizes glioblastoma cancer cells to PARPi

SMILES | IC50 values (PARP; [2]) | IC50 values (PARP) | sensitivity of glioblastoma cancer cells to PARPi with ionizing radiation [1]
Cn1ncnc1[C@H]1c2n[nH]c(=O)c3cc(F)cc(c23)N[C@@H]1c1ccc(F)cc1 [talazoparib] | picomolar range | – | –
